From PubChem BioAssay AID2060886 (Molecular Pharmacology Branch, DTP, NCI, 2025)

Test system: 653999-131-R-J2-PDC complex spheroids, growth inhibition
Assay: Anticancer human tumor 653999-131-R-J2-PDC patient-derived lung adenocarcinoma cell line growth inhibition [RAS]
Settings: for IC50: curve of first compound; for viability, T/C: stronger effect = lower value
Procedure, shortened: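 Multi-cell-type spheroids: tumor cells plus HUVEC endothelial cells and mesenchymal stem cells. RAS-pathway inhibitors were combined with targeted agents, each dosed in half-log steps down from clinical Cmax, or from 10 microM when Cmax was unknown.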

[1] = second compound 0.0316 µM, first compound 0.0316 µM
[2] = second compound 0.0316 µM, first compound 0.1 µM
[3] = second compound 0.0316 µM, first compound 0.316 µM
[4] = second compound 0.0316 µM, first compound 1 µM
[5] = second compound 0.0316 µM, first compound 3.16 µM
[6] = second compound 0.0316 µM, first compound 10 µM
[7] = second compound 0.1 µM, first compound 0.0316 µM
[8] = second compound 0.1 µM, first compound 0.1 µM
[9] = second compound 0.1 µM, first compound 0.316 µM
[10] = second compound 0.1 µM, first compound 1 µM
[11] = second compound 0.1 µM, first compound 3.16 µM
[12] = second compound 0.1 µM, first compound 10 µM
[13] = second compound 0.316 µM, first compound 0.0316 µM
[14] = second compound 0.316 µM, first compound 0.1 µM
[15] = second compound 0.316 µM, first compound 0.316 µM
[16] = second compound 0.316 µM, first compound 1 µM
[17] = second compound 0.316 µM, first compound 3.16 µM
[18] = second compound 0.316 µM, first compound 10 µM
[19] = second compound 1 µM, first compound 0.0316 µM
[20] = second compound 1 µM, first compound 0.1 µM
[21] = second compound 1 µM, first compound 0.316 µM
[22] = second compound 1 µM, first compound 1 µM
[23] = second compound 1 µM, first compound 3.16 µM
[24] = second compound 1 µM, first compound 10 µM
[25] = second compound 3.16 µM, first compound 0.0316 µM
[26] = second compound 3.16 µM, first compound 0.1 µM
[27] = second compound 3.16 µM, first compound 0.316 µM
[28] = second compound 3.16 µM, first compound 1 µM
[29] = second compound 3.16 µM, first compound 3.16 µM
[30] = second compound 3.16 µM, first compound 10 µM
[31] = second compound 10 µM, first compound 0.0316 µM
[32] = second compound 10 µM, first compound 0.1 µM
[33] = second compound 10 µM, first compound 0.316 µM
[34] = second compound 10 µM, first compound 1 µM
[35] = second compound 10 µM, first compound 3.16 µM
[36] = second compound 10 µM, first compound 10 µM
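Note: spheroids exposed to the agents for seven days before the readout.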

Work on `CC1(O)CCCC1n1c(=O)c(C(F)F)cc2cnc(NC3CCN(S(C)(=O)=O)CC3)nc21` (stereo unspecified) + C#Cc1c(F)ccc2cc(O)cc(-c3ncc4c(N5CC6CCC(C5)N6)nc(OCC56CCCN5CC(F)C6)nc4c3F)c12 yielded an IC50 (second compound 0.0316 µM) of 4.78 µM, an IC50 (second compound 0.1 µM) of 3.96 µM and an IC50 (second compound 0.316 µM) of less than 0.0316 µM. For the same molecule, the IC50 (second compound 1 µM) was less than 0.0316 µM, the IC50 (second compound 3.16 µM) was less than 0.0316 µM and the IC50 (second compound 10 µM) was less than 0.0316 µM. It also gave a viability, T/C [1] of 71.3%, a viability, T/C [2] of 54.8% and a viability, T/C [3] of 62.4%. It also gave a viability, T/C [4] of 57.2%, a viability, T/C [5] of 63.1% and a viability, T/C [6] of 29.6%. For the same molecule, the viability, T/C [7] was 69.4%, the viability, T/C [8] was 49.9% and the viability, T/C [9] was 51.2%. It also gave a viability, T/C [10] of 52.1%, a viability, T/C [11] of 58.4% and a viability, T/C [12] of 24.7%. For the same molecule, the viability, T/C [13] was 49.4%, the viability, T/C [14] was 42.7% and the viability, T/C [15] was 42.6%. For the same molecule, the viability, T/C [16] was 45.5%, the viability, T/C [17] was 49.2% and the viability, T/C [18] was 27.7%. It also gave a viability, T/C [19] of 40.5%, a viability, T/C [20] of 31.4% and a viability, T/C [21] of 32.7%. For the same molecule, the viability, T/C [22] was 34.3%, the viability, T/C [23] was 34.4% and the viability, T/C [24] was 24.5%. The viability, T/C [25] was 29.6%, the viability, T/C [26] was 25.5% and the viability, T/C [27] was 21.6%. For the same molecule, the viability, T/C [28] was 23%, the viability, T/C [29] was 31.4% and the viability, T/C [30] was 20.7%. The viability, T/C [31] was 23.2%, the viability, T/C [32] was 17.1% and the viability, T/C [33] was 20.6%. The viability, T/C [34] was 19.7%, the viability, T/C [35] was 25.6% and the viability, T/C [36] was 22.7%.
`NC1c2ccccc2OC12CCN(c1cnc3c(N4CCCc5ncccc54)n[nH]c3n1)CC2` (stereo unspecified) + C#Cc1c(F)ccc2cc(O)cc(-c3ncc4c(N5CC6CCC(C5)N6)nc(OCC56CCCN5CC(F)C6)nc4c3F)c12 showed an IC50 (second compound 0.0316 µM) greater than 10 µM, an IC50 (second compound 0.1 µM) of 1.39 µM and an IC50 (second compound 0.316 µM) of less than 0.0316 µM. It also gave an IC50 (second compound 1 µM) of less than 0.0316 µM, an IC50 (second compound 3.16 µM) of less than 0.0316 µM and an IC50 (second compound 10 µM) of less than 0.0316 µM. It also gave a viability, T/C [1] of 72.8%, a viability, T/C [2] of 67.5% and a viability, T/C [3] of 64.5%. It also gave a viability, T/C [4] of 72.2%, a viability, T/C [5] of 71.3% and a viability, T/C [6] of 60.2%. For the same molecule, the viability, T/C [7] was 64.5%, the viability, T/C [8] was 75.4% and the viability, T/C [9] was 60.1%. For the same molecule, the viability, T/C [10] was 53.2%, the viability, T/C [11] was 44.6% and the viability, T/C [12] was 41.1%. The viability, T/C [13] was 48%, the viability, T/C [14] was 50.4% and the viability, T/C [15] was 40.4%. The viability, T/C [16] was 42.7%, the viability, T/C [17] was 32.6% and the viability, T/C [18] was 45.8%. The viability, T/C [19] was 41.7%, the viability, T/C [20] was 34.8% and the viability, T/C [21] was 33.9%. The viability, T/C [22] was 32.4%, the viability, T/C [23] was 32.7% and the viability, T/C [24] was 19.5%. The viability, T/C [25] was 30.3%, the viability, T/C [26] was 25.8% and the viability, T/C [27] was 16.9%. For the same molecule, the viability, T/C [28] was 18.1%, the viability, T/C [29] was 18.7% and the viability, T/C [30] was 13%. For the same molecule, the viability, T/C [31] was 12%, the viability, T/C [32] was 7.13% and the viability, T/C [33] was 7.02%. For the same molecule, the viability, T/C [34] was 6.33%, the viability, T/C [35] was 7.29% and the viability, T/C [36] was 7.2%.
Molecule `C[C@@H](NC(=O)c1ncnc(N)c1Cl)c1ncc(C(=O)Nc2cc(C(F)(F)F)c(Cl)cn2)s1` + C=CC(=O)N1CCN(c2nc(OCC3CCCN3C)nc3c(F)c(-c4nc(N)cc(C)c4C(F)(F)F)c(Cl)cc23)C(C)C1 has an IC50 (second compound 0.00316 µM) greater than 10 µM, an IC50 (second compound 0.01 µM) greater than 10 µM and an IC50 (second compound 0.0316 µM) greater than 10 µM. It also gave an IC50 (second compound 0.1 µM) greater than 10 µM, an IC50 (second compound 0.316 µM) greater than 10 µM and an IC50 (second compound 1 µM) greater than 10 µM. It also gave a viability, T/C (second compound 0.00316 µM, first compound 0.0316 µM) of 120%, a viability, T/C (second compound 0.00316 µM, first compound 0.1 µM) of 85% and a viability, T/C (second compound 0.00316 µM, first compound 0.316 µM) of 101%. It also gave a viability, T/C (second compound 0.00316 µM, first compound 1 µM) of 81%, a viability, T/C (second compound 0.00316 µM, first compound 3.16 µM) of 88.5% and a viability, T/C (second compound 0.00316 µM, first compound 10 µM) of 81%. For the same molecule, the viability, T/C (second compound 0.01 µM, first compound 0.0316 µM) was 127%, the viability, T/C (second compound 0.01 µM, first compound 0.1 µM) was 108% and the viability, T/C (second compound 0.01 µM, first compound 0.316 µM) was 89%. It also gave a viability, T/C (second compound 0.01 µM, first compound 1 µM) of 93.5%, a viability, T/C (second compound 0.01 µM, first compound 3.16 µM) of 98% and a viability, T/C (second compound 0.01 µM, first compound 10 µM) of 71.3%. For the same molecule, the viability, T/C [1] was 116%, the viability, T/C [2] was 90.3% and the viability, T/C [3] was 93.5%. It also gave a viability, T/C [4] of 89.9%, a viability, T/C [5] of 84.3% and a viability, T/C [6] of 73.2%. For the same molecule, the viability, T/C [7] was 105%, the viability, T/C [8] was 95.2% and the viability, T/C [9] was 101%. It also gave a viability, T/C [10] of 94.3%, a viability, T/C [11] of 89.5% and a viability, T/C [12] of 84.2%. It also gave a viability, T/C [13] of 107%, a viability, T/C [14] of 96.1% and a viability, T/C [15] of 110%. It also gave a viability, T/C [16] of 97.6%, a viability, T/C [17] of 85.1% and a viability, T/C [18] of 86.1%. It also gave a viability, T/C [19] of 90.9%, a viability, T/C [20] of 96.7% and a viability, T/C [21] of 104%. It also gave a viability, T/C [22] of 99.5%, a viability, T/C [23] of 87.5% and a viability, T/C [24] of 82.2%.
